Experimental data published in ChEMBL document CHEMBL1201862, “PubChem BioAssay data set” (2004).
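Dose response: 5 concentrations. Exposure: 48 h. Format: 96-well plates. Endpoint: linear interpolation; highest concentration if not reached. Abbreviation: GI50, concentration required for 50% inhibition of growth.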 Active and inactive are the calls of the source. No stated cut-off is given here; in the data, active = GI50 up to about 1.1 µM and inactive = higher.

Assays:
Assay in all cases: growth of human tumour cells (NCI), 48 h
DLD-1 = test system: DLD-1
RXF 393 = test system: RXF 393
HT-29 = test system: HT-29
NCI-H226 = test system: NCI-H226
LXFL 529 = test system: LXFL 529
EKVX = test system: EKVX
KM-20L2 = test system: KM-20L2
A498 = test system: A498
OVCAR-8 = test system: OVCAR-8
NCI-H522 = test system: NCI-H522
SF-295 = test system: SF-295
A549 = test system: A549
OVCAR-3 = test system: OVCAR-3
DMS-273 = test system: DMS-273
IGROV-1 = test system: IGROV-1
SNB-75 = test system: SNB-75
UO-31 = test system: UO-31
HOP-62 = test system: HOP-62
LOX IMVI = test system: LOX IMVI
XF498 = test system: XF498
SW-620 = test system: SW-620
RPMI-8226 = test system: RPMI-8226
NCI-H460 = test system: NCI-H460
ACHN = test system: ACHN
M19-MEL = test system: M19-MEL
SNB-19 = test system: SNB-19
SF-268 = test system: SF-268
M14 = test system: M14
SK-MEL-5 = test system: SK-MEL-5
NCI-H23 = test system: NCI-H23
HCT-15 = test system: HCT-15
SK-MEL-28 = test system: SK-MEL-28
KM12 = test system: KM12
SK-OV-3 = test system: SK-OV-3
COLO 205 = test system: COLO 205
RXF 631 = test system: RXF 631
SF-539 = test system: SF-539
HOP-18 = test system: HOP-18
CAKI-1 = test system: CAKI-1
OVCAR-4 = test system: OVCAR-4
TK-10 = test system: TK-10
OVCAR-5 = test system: OVCAR-5
UACC-62 = test system: UACC-62
Malme-3M = test system: Malme-3M
SK-MEL-2 = test system: SK-MEL-2
MOLT-4 = test system: MOLT-4
UACC-257 = test system: UACC-257
K562 = test system: K562
HCC 2998 = test system: HCC 2998
786-0 = test system: 786-0
CCRF-CEM = test system: CCRF-CEM
SN12C = test system: SN12C
DMS-114 = test system: DMS-114
U-251 = test system: U-251
HCT-116 = test system: HCT-116
SNB-78 = test system: SNB-78
HL-60 = test system: HL-60
SR = test system: SR
HOP-92 = test system: HOP-92

Measured: GI50

CCCc1n[nH]c(CCC(=O)N(Cc2ccccc2)Cc2ccccc2)c1CC
inactive: DLD-1 > 100 µM | RXF 393 > 100 µM | HT-29 > 100 µM | NCI-H226 > 100 µM | LXFL 529 > 100 µM | EKVX > 100 µM | KM-20L2 > 100 µM | A498 > 100 µM | OVCAR-8 > 100 µM | NCI-H522 > 100 µM | SF-295 > 100 µM | A549 > 100 µM | OVCAR-3 > 100 µM | DMS-273 > 100 µM | IGROV-1 > 100 µM | SNB-75 > 100 µM | UO-31 > 100 µM | HOP-62 > 100 µM | LOX IMVI > 100 µM | XF498 > 100 µM | SW-620 > 100 µM | RPMI-8226 > 100 µM | NCI-H460 > 100 µM | ACHN > 100 µM | M19-MEL > 100 µM | SNB-19 > 100 µM | SF-268 > 100 µM | M14 > 100 µM | SK-MEL-5 > 100 µM | NCI-H23 > 100 µM | SK-MEL-28 > 100 µM | KM12 > 100 µM | SK-OV-3 > 100 µM | COLO 205 > 100 µM | RXF 631 > 100 µM | SF-539 > 100 µM | HOP-18 > 100 µM | CAKI-1 > 100 µM | OVCAR-4 > 100 µM | TK-10 > 100 µM | OVCAR-5 > 100 µM | UACC-62 > 100 µM | Malme-3M > 100 µM | SK-MEL-2 > 100 µM | MOLT-4 > 100 µM | UACC-257 > 100 µM | K562 > 100 µM | HCC 2998 > 100 µM | 786-0 > 100 µM | CCRF-CEM > 100 µM | SN12C > 100 µM | DMS-114 > 100 µM
> 100 µM: HCT-15

NC(N)NCCCc1cn2c(n1)C1CCCN1C(=O)C2Cc1ccccc1 (stereo not drawn)
> 100 µM: HCT-15
inactive: DLD-1 > 100 µM | RXF 393 > 100 µM | HT-29 > 100 µM | NCI-H226 > 100 µM | LXFL 529 > 100 µM | EKVX > 100 µM | KM-20L2 > 100 µM | A498 > 100 µM | OVCAR-8 > 100 µM | NCI-H522 > 100 µM | SF-295 > 100 µM | A549 > 100 µM | OVCAR-3 > 100 µM | DMS-273 > 100 µM | IGROV-1 > 100 µM | SNB-75 61 µM | UO-31 > 100 µM | HOP-62 > 100 µM | LOX IMVI > 100 µM | XF498 > 100 µM | SW-620 > 100 µM | RPMI-8226 > 100 µM | NCI-H460 > 100 µM | ACHN > 100 µM | M19-MEL > 100 µM | SNB-19 > 100 µM | SF-268 > 100 µM | M14 > 100 µM | SK-MEL-5 > 100 µM | NCI-H23 > 100 µM | U-251 > 100 µM | HCT-116 > 100 µM | SK-MEL-28 > 100 µM | KM12 > 100 µM | SK-OV-3 > 100 µM | SNB-78 > 100 µM | COLO 205 > 100 µM | RXF 631 > 100 µM | SF-539 > 100 µM | CAKI-1 > 100 µM | OVCAR-4 > 100 µM | TK-10 > 100 µM | OVCAR-5 > 100 µM | UACC-62 > 100 µM | Malme-3M > 100 µM | SK-MEL-2 > 100 µM | MOLT-4 > 100 µM | UACC-257 > 100 µM | K562 > 100 µM | HCC 2998 > 100 µM | 786-0 > 100 µM | CCRF-CEM > 100 µM | SN12C > 100 µM | DMS-114 > 100 µM

Cc1cc(C)nc(NS(=O)(=O)c2ccc(Nc3c4ccccc4nc4c(C(=O)NCCN(C)C)cccc34)cc2)n1
active: OVCAR-8 0.675 µM | NCI-H522 0.566 µM | DMS-273 0.813 µM | SW-620 0.764 µM | NCI-H460 0.771 µM | RXF 631 0.986 µM | SR 302 nM | MOLT-4 0.277 µM | DMS-114 1.04 µM
5.66 µM: HCT-15
inactive: DLD-1 5.15 µM | RXF 393 6.32 µM | HT-29 1.14 µM | NCI-H226 2.17 µM | HL-60 1.49 µM | LXFL 529 4.25 µM | EKVX 10.5 µM | KM-20L2 6.61 µM | SF-295 1.91 µM | A549 3.13 µM | IGROV-1 2.83 µM | SNB-75 10.7 µM | UO-31 1.49 µM | HOP-62 2.52 µM | LOX IMVI 1.74 µM | XF498 13.7 µM | ACHN 3.49 µM | M19-MEL 3.44 µM | SNB-19 1.85 µM | SF-268 2.57 µM | M14 6.5 µM | SK-MEL-5 5.75 µM | NCI-H23 4.26 µM | U-251 3.72 µM | HCT-116 1.53 µM | SK-MEL-28 5.97 µM | KM12 3.43 µM | SNB-78 11.5 µM | COLO 205 1.86 µM | SF-539 2.85 µM | OVCAR-4 3.04 µM | TK-10 10.6 µM | OVCAR-5 12.8 µM | UACC-62 3.55 µM | SK-MEL-2 4.89 µM | K562 2.08 µM | 786-0 11.6 µM | CCRF-CEM 1.26 µM | SN12C 2.79 µM

CN(C)CCC(/C=C/c1ccccc1)=N\Nc1ccc(Cl)c(Cl)c1
inactive: DLD-1 3.49 µM | RXF 393 2.74 µM | HT-29 2.24 µM | HL-60 2.7 µM | LXFL 529 2 µM | EKVX 3.66 µM | KM-20L2 2.02 µM | A498 4.63 µM | OVCAR-8 2.7 µM | NCI-H522 2.1 µM | SF-295 3.78 µM | A549 3.13 µM | OVCAR-3 4.27 µM | DMS-273 2.36 µM | IGROV-1 3.04 µM | SNB-75 2.27 µM | UO-31 1.64 µM | HOP-62 3.15 µM | LOX IMVI 1.99 µM | XF498 2.3 µM | SW-620 3.45 µM | RPMI-8226 3.44 µM | NCI-H460 2.01 µM | ACHN 1.92 µM | M19-MEL 4.31 µM | SNB-19 5.53 µM | SF-268 2.56 µM | M14 2.72 µM | SK-MEL-5 4.49 µM | NCI-H23 2.81 µM | U-251 4.59 µM | HCT-116 3.56 µM | SK-MEL-28 9.33 µM | KM12 2.05 µM | SK-OV-3 4.53 µM | SNB-78 3.58 µM | COLO 205 2.6 µM | RXF 631 2.37 µM | SF-539 2.2 µM | HOP-18 2.67 µM | HOP-92 1.41 µM | CAKI-1 2.61 µM | OVCAR-4 3.56 µM | TK-10 2.38 µM | OVCAR-5 3.33 µM | UACC-62 2.55 µM | Malme-3M 14.2 µM | SR 2090 nM | SK-MEL-2 2.49 µM | MOLT-4 2.44 µM | UACC-257 3.33 µM | K562 2.23 µM | 786-0 2.69 µM | CCRF-CEM 2.91 µM | SN12C 3.52 µM
3.6 µM: HCT-15

COc1cc(CCc2ccncc2)cc(OC)c1OC
> 100 µM: HCT-15
inactive: DLD-1 > 100 µM | RXF 393 > 100 µM | HT-29 > 100 µM | NCI-H226 > 100 µM | HL-60 > 100 µM | LXFL 529 > 100 µM | EKVX > 100 µM | KM-20L2 > 100 µM | A498 > 100 µM | OVCAR-8 > 100 µM | NCI-H522 > 100 µM | SF-295 > 100 µM | A549 > 100 µM | OVCAR-3 > 100 µM | DMS-273 > 100 µM | IGROV-1 > 100 µM | SNB-75 > 100 µM | UO-31 > 100 µM | HOP-62 > 100 µM | LOX IMVI > 100 µM | XF498 > 100 µM | SW-620 > 100 µM | RPMI-8226 > 100 µM | NCI-H460 > 100 µM | ACHN > 100 µM | M19-MEL > 100 µM | SNB-19 > 100 µM | SF-268 > 100 µM | M14 > 100 µM | SK-MEL-5 > 100 µM | NCI-H23 > 100 µM | U-251 > 100 µM | HCT-116 > 100 µM | SK-MEL-28 > 100 µM | KM12 > 100 µM | SNB-78 > 100 µM | COLO 205 > 100 µM | RXF 631 > 100 µM | SF-539 > 100 µM | HOP-18 > 100 µM | HOP-92 > 100 µM | CAKI-1 > 100 µM | OVCAR-4 > 100 µM | TK-10 > 100 µM | OVCAR-5 > 100 µM | UACC-62 > 100 µM | Malme-3M > 100 µM | MOLT-4 > 100 µM | UACC-257 > 100 µM | K562 > 100 µM | 786-0 > 100 µM | CCRF-CEM > 100 µM | SN12C > 100 µM | DMS-114 > 100 µM
